In patent US20080227797A1, “Pyridopyrimidine Derivatives as Pde4 Inhibitors for the Treatment of Inflammatory and Immune Diseases” (ASTRAZENECA AB, priority 2005, published 2008) one finds IC50 data, which are given here for 16 molecules.

Chain of recombinant Human Phosphodiesterase B2 (PDE4B2) (Q07343 1-564 isoform Q07343-2): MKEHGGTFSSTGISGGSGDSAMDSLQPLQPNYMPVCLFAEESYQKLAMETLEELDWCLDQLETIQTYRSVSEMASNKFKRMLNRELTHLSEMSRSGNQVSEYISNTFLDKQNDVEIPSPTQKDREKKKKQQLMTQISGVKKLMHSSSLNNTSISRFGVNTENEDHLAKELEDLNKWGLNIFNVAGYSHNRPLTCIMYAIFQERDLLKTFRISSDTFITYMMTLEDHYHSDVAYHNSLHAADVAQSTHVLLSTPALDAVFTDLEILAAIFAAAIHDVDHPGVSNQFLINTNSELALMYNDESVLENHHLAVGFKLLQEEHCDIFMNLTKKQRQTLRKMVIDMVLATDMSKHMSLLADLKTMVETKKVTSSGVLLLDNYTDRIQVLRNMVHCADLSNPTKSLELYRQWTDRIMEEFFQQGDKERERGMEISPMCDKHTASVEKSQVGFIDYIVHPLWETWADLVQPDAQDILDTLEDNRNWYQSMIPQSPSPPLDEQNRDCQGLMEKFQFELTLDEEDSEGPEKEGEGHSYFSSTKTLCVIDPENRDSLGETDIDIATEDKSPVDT

For this experiment, the target named is recombinant Human Phosphodiesterase B2 (PDE4B2) (Homo sapiens, UniProt Q07343). Description: Human Phosphodiesterase B2 Alpha Screen Assay. In kind it is biochemical. The conditions noted are these: cAMP substrate, Alpha Screen cAMP kit, 60 minutes at room temperature. In outline:
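Recombinant human PDE4B2 preincubated 15 min at RT with compound in 50 mM Tris pH 7.5, 8.3 mM MgCl2, 1.7 mM EGTA, 0.01% Brij35, then reacted with cAMP for 60 min at RT. Stopped with EDTA; AlphaScreen beads with biotinylated cAMP incubated 5 h in the dark before reading. IC50 from curve fitting.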
`O=C(N[C@H]1CC[C@@H](n2c(=O)c3cc(F)cnc3n(-c3ccc(F)c(F)c3)c2=O)CC1)c1ccc2ncsc2c1` [Example 91, N-{cis-4-[1-(3,4-difluorophenyl)-6-fluoro-2,4-dioxo-1,4-dihydropyrido[2,3-d]pyrimidin-3(2H)-yl]cyclohexyl}-1,3-benzothiazole-6-carboxamide]: the IC50 worked out at 2.09 nM.

For `CC1=C(C(=O)N[C@H]2CC[C@@H](n3c(=O)c4cc(F)cnc4n(-c4ccc(F)c(F)c4)c3=O)CC2)SC2=NCCCN21` [Example 92, N-{cis-4-[1-(3,4-difluorophenyl)-6-fluoro-2,4-dioxo-1,4-dihydropyrido[2,3-d]pyrimidin-3(2H)-yl]cyclohexyl}-3-methyl-6,7-dihydro-5H-[1,3]thiazolo[3,2-a]pyrimidine-2-carboxamide], the IC50 was 7.83 nM. In the case of `O=C(N[C@H]1CC[C@@H](n2c(=O)c3cc(F)cnc3n(-c3ccc(F)c(F)c3)c2=O)CC1)c1csnn1` [Example 93, N-{cis-4-[1-(3,4-difluorophenyl)-6-fluoro-2,4-dioxo-1,4-dihydropyrido[2,3-d]pyrimidin-3(2H)-yl]cyclohexyl}-1,2,3-thiadiazole-4-carboxamide] it was 11.7 nM; in that of `O=C(N[C@H]1CC[C@@H](n2c(=O)c3cc(F)cnc3n(-c3ccc(F)c(F)c3)c2=O)CC1)c1cn[nH]c1` [Example 94, N-{cis-4-[1-(3,4-difluorophenyl)-6-fluoro-2,4-dioxo-1,4-dihydropyrido[2,3-d]pyrimidin-3(2H)-yl]cyclohexyl}-1H-pyrazole-4-carboxamide], 5.31 nM; in that of `O=C(N[C@H]1CC[C@@H](n2c(=O)c3cc(F)cnc3n(-c3ccc(F)c(F)c3)c2=O)CC1)c1ccsc1` [Example 95, N-{cis-4-[1-(3,4-difluorophenyl)-6-fluoro-2,4-dioxo-1,4-dihydropyrido[2,3-d]pyrimidin-3(2H)-yl]cyclohexyl}thiophene-3-carboxamide], 3.39 nM. The result for `O=C(N[C@H]1CC[C@@H](n2c(=O)c3cc(F)cnc3n(-c3ccc(F)c(F)c3)c2=O)CC1)c1cc[nH]c1` [Example 96, N-{cis-4-[1-(3,4-difluorophenyl)-6-fluoro-2,4-dioxo-1,4-dihydropyrido[2,3-d]pyrimidin-3(2H)-yl]cyclohexyl}-1H-pyrrole-3-carboxamide] reads 6.68 nM. The result for `Cn1cnc(C(=O)N[C@H]2CC[C@@H](n3c(=O)c4cc(F)cnc4n(-c4ccc(F)c(F)c4)c3=O)CC2)c1` [Example 97, N-{cis-4-[1-(3,4-difluorophenyl)-6-fluoro-2,4-dioxo-1,4-dihydropyrido[2,3-d]pyrimidin-3(2H)-yl]cyclohexyl}-1-methyl-1H-imidazole-4-carboxamide] reads 2.18 nM. Consider `O=C(N[C@H]1CC[C@@H](n2c(=O)c3cc(F)cnc3n(-c3ccc(F)c(F)c3)c2=O)CC1)c1cc[nH]n1` [Example 98, N-{cis-4-[1-(3,4-difluorophenyl)-6-fluoro-2,4-dioxo-1,4-dihydropyrido[2,3-d]pyrimidin-3(2H)-yl]cyclohexyl}-1H-pyrazole-3-carboxamide], for which the concentration for half-maximal inhibition (IC50) turned out to be 50.1 nM. The result for `O=C(CCN1CCOCC1)N[C@H]1CC[C@@H](n2c(=O)c3cc(F)cnc3n(-c3ccc(F)c(F)c3)c2=O)CC1` [Example 100, N-{cis-4-[1-(3,4-difluorophenyl)-6-fluoro-2,4-dioxo-1,4-dihydropyrido[2,3-d]pyrimidin-3(2H)-yl]cyclohexyl}-3-morpholin-4-ylpropanamide] reads 2.12 nM; that for `C=Cc1ccc(C(=O)N[C@H]2CC[C@@H](n3c(=O)c4cc(F)cnc4n(-c4ccc(F)c(F)c4)c3=O)CC2)cc1` [Example 101, N-{cis-4-[1-(3,4-difluorophenyl)-6-fluoro-2,4-dioxo-1,4-dihydropyrido[2,3-d]pyrimidin-3(2H)-yl]cyclohexyl}-4-vinylbenzamide], 2.05 nM; that for `C#Cc1ccc(C(=O)N[C@H]2CC[C@@H](n3c(=O)c4cc(F)cnc4n(-c4ccc(F)c(F)c4)c3=O)CC2)cc1` [Example 102, N-{cis-4-[1-(3,4-difluorophenyl)-6-fluoro-2,4-dioxo-1,4-dihydropyrido[2,3-d]pyrimidin-3(2H)-yl]cyclohexyl}-4-ethynylbenzamide], 1 nM. The result for `O=C(N[C@H]1CC[C@@H](n2c(=O)c3cc(F)cnc3n(-c3ccc(F)c(F)c3)c2=O)CC1)c1cc2cccnc2[nH]1` [Example 103, N-{cis-4-[1-(3,4-difluorophenyl)-6-fluoro-2,4-dioxo-1,4-dihydropyrido[2,3-d]pyrimidin-3(2H)-yl]cyclohexyl}-1H-pyrrolo[2,3-b]pyridine-2-carboxamide] reads 0.741 nM; that for `O=C(N[C@H]1CC[C@@H](n2c(=O)c3cc(F)cnc3n(-c3ccc(F)c(F)c3)c2=O)CC1)c1nc2ccccc2s1` [Example 104, N-{cis-4-[1-(3,4-difluorophenyl)-6-fluoro-2,4-dioxo-1,4-dihydropyrido[2,3-d]pyrimidin-3(2H)-yl]cyclohexyl}-1,3-benzothiazole-2-carboxamide], 2.09 nM. The result for `O=C(N[C@H]1CC[C@@H](n2c(=O)c3cc(F)cnc3n(-c3ccc(F)c(F)c3)c2=O)CC1)c1cc2cccnc2s1` [Example 105, N-{cis-4-[1-(3,4-difluorophenyl)-6-fluoro-2,4-dioxo-1,4-dihydropyrido[2,3-d]pyrimidin-3(2H)-yl]cyclohexyl}thieno[2,3-b]pyridine-2-carboxamide] reads 6.03 nM; that for `O=C(N[C@H]1CC[C@@H](n2c(=O)c3cc(F)cnc3n(-c3ccc(F)c(F)c3)c2=O)CC1)c1cc2nccnc2s1` [Example 106, N-{cis-4-[1-(3,4-difluorophenyl)-6-fluoro-2,4-dioxo-1,4-dihydropyrido[2,3-d]pyrimidin-3(2H)-yl]cyclohexyl}thieno[2,3-b]pyrazine-6-carboxamide], 3.89 nM. Turning to `O=C(N[C@H]1CC[C@@H](n2c(=O)c3cc(F)cnc3n(-c3ccc(F)c(F)c3)c2=O)CC1)c1nc2ncccn2n1` [Example 107, N-{cis-4-[1-(3,4-difluorophenyl)-6-fluoro-2,4-dioxo-1,4-dihydropyrido[2,3-d]pyrimidin-3(2H)-yl]cyclohexyl}[1,2,4]triazolo[1,5-a]pyrimidine-2-carboxamide], the IC50 came out at 30.1 nM.
